Test: gradient 5% acetonitrile 3 min, to 50% in 2 min, to 85% in 15 min, held 3 min, 100 µL/min
Settings: column: Zorbax Extend-C18 2.1 x 50 mm; eluents: water / acetonitrile, 0.1% formic acid
Summary of the method: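 Each retention time is based on an adduct peak selected computationally and verified by manual inspection. Measurements used HPLC–quadrupole time-of-flight mass spectrometry in positive and negative ionization mode on mixtures of ~100 pure standards. Chromatography ran on a Zorbax Extend-C18 column (2.1 × 50 mm, 1.8 μm) at 100 μL/min with water and acetonitrile, each containing 0.1% formic acid, and dead and dwell volumes of 40 μL and 900 μL.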

Row | RP-LC retention time | SMILES
1 | 737 s | Cc1noc(-c2ccc(-n3ncc(C(=O)NC4CCCCC4)c3C)nc2)n1
2 | 895 s | CCOC(=O)c1c(S(=O)(=O)N2CCC(C(=O)Nc3ccc(F)cc3F)CC2)c(C)n(CC)c1C
3 | 671 s | CCN1C(=O)CC[C@]2(CNC(=O)c3ccc(OC)nc3)CCC[C@@H]12
4 | 752 s | O=C(NCc1ccco1)N1CCCn2nc(-c3cccs3)cc2C1
5 | 971 s | O=S(=O)(Cc1cccc(Cl)c1)NCCc1noc(-c2ccccc2)n1
6 | 1170 s | COc1ccc(CN2C=C(C(=O)OCc3nc(-c4cccc(C)c4)no3)C(C)=NS2(=O)=O)cc1
7 | 633 s | Cc1nc(C)c(C(=O)NCC23CCCC=C2NC(=O)CC3)s1 (stereo not given)
8 | 688 s | CCOC(=O)CCNC(=O)N1CCN(Cc2nnnn2-c2ccc(F)c(F)c2)CC1
9 | 688 s | COc1ccc(C(C)NC(=O)C2CC(=O)N(c3ccc4c(c3)CCN4C(C)=O)C2)cc1 (stereo not given)
10 | 773 s | O=C(O)c1ccc(S(=O)(=O)N2CCc3ccccc3C2)cc1
11 | 790 s | CCN1CCCn2cc(S(=O)(=O)Nc3ccc(Cl)cc3C)cc2C1=O
12 | 1050 s | CC(C)S(=O)(=O)NC[C@H](C)c1ccc(NC(=O)c2cc(F)cc(F)c2)cc1
13 | 952 s | CC1CCN(C(=O)c2nnc(-c3ccc(S(=O)(=O)N4CCCC4)cc3)o2)CC1
14 | 835 s | Cc1ccc(N(C)S(=O)(=O)c2cc(-c3[nH]ncc3C(=O)N3CCCCC3)oc2C)cc1
15 | 679 s | Cn1nc(CN2CCCC2)c2c1CCN(S(=O)(=O)c1ccc(C(F)(F)F)cc1)C2
16 | 809 s | COc1ccc(C)cc1NC(=O)C1CCN(S(=O)(=O)c2cc(C(=O)N3CCCC3)n(C)c2)CC1
17 | 596 s | COCCn1c(CCCC(=O)N2CCN(c3ncccn3)CC2)nc2cccnc21
18 | 784 s | CC(=O)N1CCCc2cc(S(=O)(=O)CCC(=O)Nc3ccc(C)c(C)c3)ccc21
19 | 654 s | COc1cccc(-c2nnc(-c3ccc(-n4ccnc4)nc3)o2)c1
20 | 608 s | O=C(c1cccs1)N1CCN(c2nnc3ccccn23)CC1
21 | 788 s | COc1ccc(-c2c(C)noc2NC(C)=O)cc1S(=O)(=O)N1CCCCCC1
22 | 988 s | Cc1oc2ccn(Cc3ccc(F)cc3)c(=O)c2c1C(=O)NCC1CC1

Row | RP-LC retention time | SMILES
23 | 664 s | CCSc1nnc(NC(=O)Cn2cnc(C(C)C)cc2=O)s1
24 | 581 s | COCCN1C(=O)c2ccccc2C(C(=O)Nc2cccnc2)C1c1cccs1 (stereo not given)
25 | 979 s | CCCS(=O)(=O)N1CC(=O)N(c2ccc(C)c(Cl)c2)C(C)(C(=O)NC2CCCCC2)C1 (stereo not given)
26 | 673 s | CC1CCN(S(=O)(=O)c2ccc3c(c2)-c2oncc2CO3)CC1
27 | 1080 s | O=C(NCCc1ccccc1)N1CCN(c2nc3cccnc3n(Cc3ccccc3)c2=O)CC1
28 | 734 s | COCc1cc(=O)n(CC(=O)Nc2cc(OC)c(OC)c(OC)c2)c(N2CCOCC2)n1
29 | 994 s | COc1ccc(/C=C2\CCc3ccccc3C2=O)cc1OC
30 | 1140 s | Cc1cccc(-c2noc(-c3nn(CC(=O)NCc4cccs4)c4ccccc34)n2)c1
31 | 747 s | CCN(C(=O)Cn1ccc2c(=O)n(C)c(=O)n(C)c21)c1cccc(Cl)c1
32 | 799 s | Cc1nnc(-c2cn(CC(=O)Nc3ccccc3F)c3ccccc23)o1
33 | 740 s | O=C1CC(C(=O)N2CCN(Cc3ccccc3)CC2)CN1CCc1ccccc1 (stereo not given)
34 | 961 s | Cc1c(Cl)cccc1Nc1c(-c2ccc(N(C)C)cc2)nc2cnccn12
35 | 624 s | CN(C)CCn1c2c(c(SCC(=O)Nc3ccccc3Cl)nc1=O)CCC2
36 | 708 s | O=C(NCCc1nc2cccnc2n1-c1ccccc1)c1ccccc1
37 | 646 s | COc1ccc(NC(=O)N2CCN(c3cc(C)nc(N4CCCC4)n3)CC2)c(OC)c1
38 | 570 s | CCCNc1cc(N2CCC(CCC(=O)N3CCN(c4ccccn4)CC3)CC2)ncn1
39 | 674 s | COc1ccc(Cl)cc1NC(=O)c1c(C)oc2c1C1=NCCN1C=N2
40 | 808 s | O=C(NCc1ccc(Cl)cc1)C1CCCN(c2nn3c(=O)c4c(nc3s2)CCCC4)C1 (stereo not given)
41 | 1070 s | O=C(/C=C/c1ccccc1)Nc1nc(-c2ccccc2)cs1
42 | 905 s | CCn1ccc2cc(S(=O)(=O)N3CCC(C(=O)NC(C)Cc4ccco4)CC3)ccc21 (stereo not given)
43 | 652 s | COc1ccc(-c2cc(C(=O)N3CCC(NC(=O)C4CC4)CC3)[nH]n2)cc1
44 | 579 s | COc1ccccc1C(=O)Nc1ccc2nc(N3CCN(CC(=O)N(C)C)CC3)cc(C(=O)O)c2c1

Row | RP-LC retention time | SMILES
45 | 868 s | CCCN(CC1CCOC1)C(=O)c1cc(C)cc(C)c1 (stereo not given)
46 | 617 s | CCNc1ncnc2sc3c(c12)CCN(C(=O)CC)C3
47 | 894 s | Cc1nc(N2CCN(C(=O)COc3ccc(Cl)cc3Cl)CC2)cc(-n2cccn2)n1
48 | 938 s | CCOc1ccc(-c2nc(NC(=O)Cc3csc(C)n3)sc2C)cc1
49 | 1170 s | CCc1ccc(N2CC(c3noc(-c4ccc(C)cc4)n3)CC2=O)cc1 (stereo not given)
50 | 797 s | CCC(C)NC(=O)C1CCN(S(=O)(=O)c2cc(-c3noc(C)n3)cs2)CC1 (stereo not given)
51 | 709 s | CC1=C(c2ccccc2)S(=O)(=O)N=C1N1CCCN(C(=O)Nc2cccc(C)c2)CC1
52 | 817 s | O=C(Nc1ccc(N2CCN(C3CCCC3)C2=O)nc1)c1ccccc1
53 | 605 s | COc1ccc(CNC(=O)c2cn3ccccc3n2)cc1OC
54 | 933 s | Cc1ccc(-c2cn3c(CC(=O)Nc4ccc(C)c(F)c4)csc3n2)cc1C
55 | 709 s | CCNc1nc(C)cc(N2CCN(C(=O)Nc3cc(Cl)ccc3OC)CC2)n1
56 | 797 s | Cc1cc(NC(=O)c2ccccc2)c(Cl)cc1N
57 | 779 s | CC(C)NC(=O)C1CCc2sc(C(=O)N3CCCCC3)cc2C1 (stereo not given)
58 | 682 s | CCC(C)N(CCNC(=O)Cc1noc2ccc(C)cc12)Cc1ccco1 (stereo not given)
59 | 838 s | Cc1ccc(-c2nc3ncccn3c2NC(=O)c2cccc(C(F)(F)F)c2)cc1
60 | 1020 s | COc1ccc(-c2nnc(Cc3nc(-c4cccc(Cl)c4)no3)o2)cc1
61 | 1050 s | Cc1cc(C)cc(NC(=O)c2csc(-c3cn(C)c4ncccc34)n2)c1
62 | 792 s | c1cn2cnnc2cc1-c1noc(-c2ccc3c(c2)OCO3)n1
63 | 644 s | CCc1ccc(S(=O)(=O)NCC(c2cccs2)N2CCOCC2)s1 (stereo not given)
64 | 606 s | O=C(Cn1ccnc1-c1ccnc(N2CCCC2)c1)NCc1ccccc1Cl
65 | 597 s | c1cncc(-c2nc(-c3ccc(-n4ccnc4)nc3)no2)c1
66 | 896 s | COc1ccc(NC(=O)CSc2nc3ccccc3o2)c(OC)c1

Row | RP-LC retention time | SMILES
67 | 995 s | Cc1nc(-c2cn(C)c3ncccc23)sc1C(=O)NC1CCCCCC1
68 | 840 s | O=c1n(Cc2c(F)cccc2Cl)nc2c(S(=O)(=O)N3CCCC3)cccn12
69 | 917 s | Cc1cccc(NC(=O)CSc2nccc(N3CCN(c4cc(C)ccc4C)CC3)n2)c1
70 | 652 s | O=C1C(=O)N(Cc2ccc(C(=O)N3CCOCC3)cc2)CCN1Cc1ccc(F)cc1
71 | 713 s | CC(C)c1ccc(Nc2c(-c3ccc(O)cc3)nc3ncccn23)cc1
72 | 689 s | CCOC(=O)N1CCC(NC(=O)CCc2cc3ccc(C)cc3[nH]c2=O)CC1
73 | 1200 s | Cc1cccc(Oc2cc(N3CCC(C(=O)Nc4cccc(C(C)C)c4)CC3)ncn2)c1C
74 | 756 s | Cc1cc(C)n(-c2cc(NC(C)C)ncn2)n1
75 | 674 s | CC1(C(=O)NCc2cc(F)ccc2F)CCCCC(=O)N1 (stereo not given)
76 | 774 s | COc1cccc(S(=O)(=O)N2CCC(c3noc(-c4ccccn4)n3)C2)c1 (stereo not given)
77 | 1100 s | Cc1ccc(S(=O)(=O)N2CCCN(C)c3ccccc32)cc1F
78 | 628 s | O=C(N[C@@H]1CN(c2ncccn2)C[C@H]1CO)c1ccc(Cl)cc1
79 | 912 s | O=C(Cn1nc(C(=O)N2CCCC2)c2ccccc21)Nc1cccc(C(F)(F)F)c1
80 | 987 s | NC(=O)c1c(NC(=O)C2=COCCO2)sc2c1CCCCC2
81 | 1220 s | Cc1ccc(NS(=O)(=O)c2cc(-c3cc(C(F)(F)F)on3)sc2C)c(Cl)c1
82 | 828 s | Cc1cc(Cl)ccc1OCC(=O)NCC1CCOCC1
83 | 846 s | COc1ccc(NC(=O)C2c3cc(OC)c(OC)cc3C(=O)N(C)C2c2cccs2)c(OC)c1 (stereo not given)
84 | 928 s | COc1ccccc1OCC1c2ccsc2CCN1C(=O)CN(CC1CC1)C(=O)C1CC1 (stereo not given)
85 | 576 s | O=C(CCNc1c(-c2ccccc2)nc2cnccn12)NCC1CCCO1 (stereo not given)
86 | 639 s | O=C(Nc1ccccc1)C1(CCO)CC12CCOCC2 (stereo not given)
87 | 680 s | O=S(=O)(c1cccc(C(F)(F)F)c1)N1CCC(CN2CCCCC2)CC1

Row | SMILES | RP-LC retention time
88 | NC1CC1c1ccccc1 (stereo not given) | 621 s
89 | O=C(C1CC1)N1[C@H]2CC[C@@H]1c1cnc(-c3ccccc3)nc1C2 | 817 s
90 | O=C(CN1CCCC1=O)NCc1ccc(F)cc1Cl | 656 s

From the METLIN SMRT retention time set (Domingo-Almenara et al. 2019)
